Results as given in ChEMBL document CHEMBL1150976, “The selectivity of protein kinase inhibitors: a further update” (Biochem J, 2007).

Key:
[1] = target: T1, 3-phosphoinositide-dependent protein kinase 1 (Homo sapiens) (UniProt O15530); test: Percentage PDK1 activity remaining in the presence of 0.01uM inhibitor; conditions: filed as antagonist
T1 sequence (whole entry): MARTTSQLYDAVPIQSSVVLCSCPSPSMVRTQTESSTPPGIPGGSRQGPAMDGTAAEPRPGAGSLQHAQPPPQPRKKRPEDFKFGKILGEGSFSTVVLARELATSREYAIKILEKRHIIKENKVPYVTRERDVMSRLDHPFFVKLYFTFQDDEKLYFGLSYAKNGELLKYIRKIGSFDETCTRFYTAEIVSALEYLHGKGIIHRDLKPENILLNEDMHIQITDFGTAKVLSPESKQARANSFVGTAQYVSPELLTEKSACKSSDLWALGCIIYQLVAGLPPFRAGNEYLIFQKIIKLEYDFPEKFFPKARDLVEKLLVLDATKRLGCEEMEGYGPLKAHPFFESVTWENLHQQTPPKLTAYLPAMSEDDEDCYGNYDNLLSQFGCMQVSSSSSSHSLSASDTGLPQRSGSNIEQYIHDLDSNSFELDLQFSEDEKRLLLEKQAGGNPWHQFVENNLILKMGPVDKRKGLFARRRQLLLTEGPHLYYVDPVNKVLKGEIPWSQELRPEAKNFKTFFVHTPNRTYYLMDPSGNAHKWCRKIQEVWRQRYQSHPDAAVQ

[2] = target: MAP/microtubule affinity-regulating kinase 3 (Homo sapiens) (UniProt P27448); test: Percentage MARK3 activity remaining in the presence of 0.01uM inhibitor; conditions: filed as antagonist
MAP/microtubule affinity-regulating kinase 3 (Homo sapiens), sequence (P27448 whole entry, looked up): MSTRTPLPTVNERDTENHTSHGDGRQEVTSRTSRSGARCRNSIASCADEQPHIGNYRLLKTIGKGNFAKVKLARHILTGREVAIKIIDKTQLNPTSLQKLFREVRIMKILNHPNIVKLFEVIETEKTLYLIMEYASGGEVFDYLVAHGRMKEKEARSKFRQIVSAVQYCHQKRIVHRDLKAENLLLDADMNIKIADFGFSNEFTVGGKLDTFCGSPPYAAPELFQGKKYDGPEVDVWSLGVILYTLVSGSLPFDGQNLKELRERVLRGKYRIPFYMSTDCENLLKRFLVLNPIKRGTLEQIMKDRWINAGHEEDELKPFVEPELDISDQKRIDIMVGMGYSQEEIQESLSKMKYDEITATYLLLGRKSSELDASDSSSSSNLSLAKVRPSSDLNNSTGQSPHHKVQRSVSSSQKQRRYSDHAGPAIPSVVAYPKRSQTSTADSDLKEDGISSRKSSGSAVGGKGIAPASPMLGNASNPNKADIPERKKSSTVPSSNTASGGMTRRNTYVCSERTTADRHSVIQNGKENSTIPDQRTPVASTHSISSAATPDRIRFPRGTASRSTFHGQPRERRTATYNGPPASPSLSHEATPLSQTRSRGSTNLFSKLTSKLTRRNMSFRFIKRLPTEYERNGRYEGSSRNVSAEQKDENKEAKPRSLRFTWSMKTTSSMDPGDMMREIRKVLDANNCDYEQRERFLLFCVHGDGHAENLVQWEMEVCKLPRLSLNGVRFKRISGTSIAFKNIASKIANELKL

[3] = target: T2, Serine/threonine-protein kinase Chk1 (Homo sapiens) (UniProt O14757); test: Percentage CHK1 activity remaining in the presence of 25uM inhibitor
T2 sequence (whole entry): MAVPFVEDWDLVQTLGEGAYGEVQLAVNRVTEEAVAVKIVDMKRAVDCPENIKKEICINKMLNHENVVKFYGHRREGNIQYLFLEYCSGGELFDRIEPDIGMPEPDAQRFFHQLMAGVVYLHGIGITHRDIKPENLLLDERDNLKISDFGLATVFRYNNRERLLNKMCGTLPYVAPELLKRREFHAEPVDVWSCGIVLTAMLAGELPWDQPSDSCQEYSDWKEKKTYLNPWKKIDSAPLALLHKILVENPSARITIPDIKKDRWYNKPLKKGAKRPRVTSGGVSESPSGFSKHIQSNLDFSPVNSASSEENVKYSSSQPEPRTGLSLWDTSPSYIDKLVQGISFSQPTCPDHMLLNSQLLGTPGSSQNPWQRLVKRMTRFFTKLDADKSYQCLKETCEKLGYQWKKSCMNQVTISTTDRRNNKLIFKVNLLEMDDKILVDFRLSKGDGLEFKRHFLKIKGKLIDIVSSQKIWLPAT

[4] = target: T3, Serine/threonine-protein kinase Nek2 (Homo sapiens) (UniProt P51955); test: Percentage NEK2a activity remaining in the presence of 25uM inhibitor
T3 sequence (whole entry): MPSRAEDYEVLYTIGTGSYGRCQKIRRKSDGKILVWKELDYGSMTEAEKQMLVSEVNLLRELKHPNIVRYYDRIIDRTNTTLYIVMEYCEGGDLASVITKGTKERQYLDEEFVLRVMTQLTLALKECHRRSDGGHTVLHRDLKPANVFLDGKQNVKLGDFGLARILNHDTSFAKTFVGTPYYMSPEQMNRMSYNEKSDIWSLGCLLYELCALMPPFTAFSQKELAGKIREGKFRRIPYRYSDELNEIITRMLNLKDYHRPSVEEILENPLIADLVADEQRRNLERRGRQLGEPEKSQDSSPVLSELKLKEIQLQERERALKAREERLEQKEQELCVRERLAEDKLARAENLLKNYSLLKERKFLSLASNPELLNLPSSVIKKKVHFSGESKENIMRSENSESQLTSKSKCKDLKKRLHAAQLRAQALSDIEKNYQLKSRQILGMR

[5] = target: T4, Eukaryotic elongation factor 2 kinase (Homo sapiens) (UniProt O00418); test: Percentage EF2K activity remaining in the presence of 25uM inhibitor
T4 sequence (whole entry): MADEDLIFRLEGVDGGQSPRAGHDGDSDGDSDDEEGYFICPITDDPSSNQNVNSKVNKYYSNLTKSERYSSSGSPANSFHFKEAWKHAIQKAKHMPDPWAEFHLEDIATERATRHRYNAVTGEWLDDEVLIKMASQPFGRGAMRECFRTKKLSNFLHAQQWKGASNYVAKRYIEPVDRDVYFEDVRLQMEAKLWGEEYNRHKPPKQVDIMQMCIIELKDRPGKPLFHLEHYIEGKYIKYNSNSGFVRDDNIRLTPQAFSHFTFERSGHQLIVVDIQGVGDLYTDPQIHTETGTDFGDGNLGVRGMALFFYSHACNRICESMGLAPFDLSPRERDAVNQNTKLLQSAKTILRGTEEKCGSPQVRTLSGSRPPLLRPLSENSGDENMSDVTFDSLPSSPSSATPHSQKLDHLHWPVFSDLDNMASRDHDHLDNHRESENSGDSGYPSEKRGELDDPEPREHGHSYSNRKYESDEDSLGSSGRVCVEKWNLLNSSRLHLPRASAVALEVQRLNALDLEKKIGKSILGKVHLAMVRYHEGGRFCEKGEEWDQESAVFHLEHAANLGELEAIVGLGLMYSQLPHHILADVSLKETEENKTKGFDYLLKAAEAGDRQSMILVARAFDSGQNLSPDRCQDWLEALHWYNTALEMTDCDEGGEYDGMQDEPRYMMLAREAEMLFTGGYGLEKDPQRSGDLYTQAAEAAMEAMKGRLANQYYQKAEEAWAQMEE

[6] = target: Dual specificity tyrosine-phosphorylation-regulated kinase 1A (Homo sapiens) (UniProt Q13627); test: Percentage DYRK1A activity remaining in the presence of 25uM inhibitor
[7] = target: MAP kinase-activated protein kinase 3 (Homo sapiens) (UniProt Q16644); test: Percentage MAPKAPK3 activity remaining in the presence of […]uM inhibitor; conditions: at 25 µM
MAP kinase-activated protein kinase 3 (Homo sapiens), sequence (Q16644 whole entry, looked up): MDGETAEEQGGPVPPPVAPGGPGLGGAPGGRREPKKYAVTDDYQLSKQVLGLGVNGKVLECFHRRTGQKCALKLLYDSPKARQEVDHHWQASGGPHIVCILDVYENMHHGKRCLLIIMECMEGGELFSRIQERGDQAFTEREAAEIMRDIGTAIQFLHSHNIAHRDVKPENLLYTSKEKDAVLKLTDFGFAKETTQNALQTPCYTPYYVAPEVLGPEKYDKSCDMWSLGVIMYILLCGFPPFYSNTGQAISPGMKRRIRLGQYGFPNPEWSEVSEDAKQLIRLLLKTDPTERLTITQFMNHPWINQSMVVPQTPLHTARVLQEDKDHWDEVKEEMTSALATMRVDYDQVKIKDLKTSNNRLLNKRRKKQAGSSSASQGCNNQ

[8] = target: Mitogen-activated protein kinase 1 (Homo sapiens) (UniProt P28482); test: Percentage ERK2 activity remaining in the presence of 25uM inhibitor
Mitogen-activated protein kinase 1 (Homo sapiens), sequence (P28482 whole entry): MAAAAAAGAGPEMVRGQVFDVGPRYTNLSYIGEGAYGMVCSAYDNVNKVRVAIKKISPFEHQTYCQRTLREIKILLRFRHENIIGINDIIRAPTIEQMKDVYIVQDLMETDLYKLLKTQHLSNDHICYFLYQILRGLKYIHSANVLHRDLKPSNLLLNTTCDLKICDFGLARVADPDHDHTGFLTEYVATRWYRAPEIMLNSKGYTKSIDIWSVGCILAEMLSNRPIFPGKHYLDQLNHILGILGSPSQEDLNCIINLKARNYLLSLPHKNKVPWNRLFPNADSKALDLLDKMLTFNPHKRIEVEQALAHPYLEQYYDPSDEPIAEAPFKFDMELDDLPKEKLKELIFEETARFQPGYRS

[9] = target: Serine/threonine-protein kinase PAK 5 (Homo sapiens) (UniProt Q9P286); test: Percentage PAK5 activity remaining in the presence of 25uM inhibitor
Serine/threonine-protein kinase PAK 5 (Homo sapiens), sequence (Q9P286 whole entry, looked up): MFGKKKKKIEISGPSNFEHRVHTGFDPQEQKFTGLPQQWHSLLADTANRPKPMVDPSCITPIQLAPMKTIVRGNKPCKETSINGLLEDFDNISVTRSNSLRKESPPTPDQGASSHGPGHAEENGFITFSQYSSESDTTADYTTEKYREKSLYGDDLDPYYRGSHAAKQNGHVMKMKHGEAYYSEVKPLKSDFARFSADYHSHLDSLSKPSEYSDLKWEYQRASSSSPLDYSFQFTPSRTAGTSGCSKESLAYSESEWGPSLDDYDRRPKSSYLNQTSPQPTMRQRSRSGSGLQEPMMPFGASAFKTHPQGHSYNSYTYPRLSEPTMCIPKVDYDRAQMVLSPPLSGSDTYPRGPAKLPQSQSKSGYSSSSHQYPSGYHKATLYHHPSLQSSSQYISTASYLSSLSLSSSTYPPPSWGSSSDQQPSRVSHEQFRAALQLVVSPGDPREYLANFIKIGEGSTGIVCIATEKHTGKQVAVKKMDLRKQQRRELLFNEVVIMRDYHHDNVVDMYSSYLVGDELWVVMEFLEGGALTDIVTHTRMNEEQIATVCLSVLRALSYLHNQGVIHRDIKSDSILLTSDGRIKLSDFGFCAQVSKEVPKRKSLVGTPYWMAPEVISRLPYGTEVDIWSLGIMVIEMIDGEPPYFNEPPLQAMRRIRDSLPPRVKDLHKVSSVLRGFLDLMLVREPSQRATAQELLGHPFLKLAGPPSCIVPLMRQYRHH

[10] = target: Myosin light chain kinase, smooth muscle (Homo sapiens, UniProt Q15746); test: Percentage SmMLCK activity remaining in the presence of 25uM inhibitor
Myosin light chain kinase, smooth muscle, sequence (Q15746 whole entry): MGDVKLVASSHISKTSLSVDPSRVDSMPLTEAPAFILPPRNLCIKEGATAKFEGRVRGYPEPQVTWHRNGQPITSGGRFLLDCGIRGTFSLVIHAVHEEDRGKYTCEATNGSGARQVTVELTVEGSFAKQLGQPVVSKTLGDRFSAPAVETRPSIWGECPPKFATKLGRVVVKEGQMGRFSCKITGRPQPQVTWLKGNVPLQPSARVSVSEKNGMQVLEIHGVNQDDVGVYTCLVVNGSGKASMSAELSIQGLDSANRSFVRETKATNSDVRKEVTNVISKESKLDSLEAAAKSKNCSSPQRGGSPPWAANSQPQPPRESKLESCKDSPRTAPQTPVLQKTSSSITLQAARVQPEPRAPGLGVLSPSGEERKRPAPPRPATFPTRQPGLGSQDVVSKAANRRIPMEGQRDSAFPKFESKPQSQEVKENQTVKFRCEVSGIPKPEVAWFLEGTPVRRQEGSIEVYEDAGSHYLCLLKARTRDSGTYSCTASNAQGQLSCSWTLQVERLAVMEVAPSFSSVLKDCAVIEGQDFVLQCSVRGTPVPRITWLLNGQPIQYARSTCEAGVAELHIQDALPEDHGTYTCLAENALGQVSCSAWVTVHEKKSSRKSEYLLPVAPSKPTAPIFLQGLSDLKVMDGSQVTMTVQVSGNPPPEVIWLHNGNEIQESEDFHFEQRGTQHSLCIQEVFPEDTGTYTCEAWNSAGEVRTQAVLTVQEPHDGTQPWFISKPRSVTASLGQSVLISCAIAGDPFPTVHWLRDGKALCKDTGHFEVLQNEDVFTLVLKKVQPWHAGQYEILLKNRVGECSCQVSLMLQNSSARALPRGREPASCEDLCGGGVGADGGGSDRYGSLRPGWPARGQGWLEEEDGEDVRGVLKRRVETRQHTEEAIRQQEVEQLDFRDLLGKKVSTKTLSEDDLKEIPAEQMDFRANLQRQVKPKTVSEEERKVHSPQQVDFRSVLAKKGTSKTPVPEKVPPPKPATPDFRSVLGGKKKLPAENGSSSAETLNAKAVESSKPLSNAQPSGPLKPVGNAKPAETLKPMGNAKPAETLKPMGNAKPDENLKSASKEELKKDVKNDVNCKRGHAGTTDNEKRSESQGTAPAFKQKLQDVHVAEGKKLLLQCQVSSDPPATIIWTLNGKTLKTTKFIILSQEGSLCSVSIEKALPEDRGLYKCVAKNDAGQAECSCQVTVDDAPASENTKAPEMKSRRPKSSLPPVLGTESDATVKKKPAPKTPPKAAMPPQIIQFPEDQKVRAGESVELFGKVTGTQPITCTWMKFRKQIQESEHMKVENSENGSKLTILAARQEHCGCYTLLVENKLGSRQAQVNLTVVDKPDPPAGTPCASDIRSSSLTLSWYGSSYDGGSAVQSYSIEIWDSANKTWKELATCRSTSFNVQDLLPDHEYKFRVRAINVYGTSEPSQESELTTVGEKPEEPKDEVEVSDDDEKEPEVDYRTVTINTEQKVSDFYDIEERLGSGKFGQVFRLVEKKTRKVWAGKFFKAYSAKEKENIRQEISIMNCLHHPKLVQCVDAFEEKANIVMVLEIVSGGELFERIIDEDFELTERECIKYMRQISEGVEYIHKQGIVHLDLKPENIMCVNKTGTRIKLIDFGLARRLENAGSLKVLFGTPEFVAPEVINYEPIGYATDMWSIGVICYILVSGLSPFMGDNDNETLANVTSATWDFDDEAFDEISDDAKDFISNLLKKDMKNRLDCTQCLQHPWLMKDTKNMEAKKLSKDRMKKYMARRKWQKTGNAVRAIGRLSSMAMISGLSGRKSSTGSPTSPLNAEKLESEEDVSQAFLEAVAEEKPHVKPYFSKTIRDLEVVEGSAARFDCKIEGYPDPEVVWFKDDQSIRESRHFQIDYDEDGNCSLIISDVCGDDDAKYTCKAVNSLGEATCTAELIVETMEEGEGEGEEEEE

[11] = target: Serine/threonine-protein kinase pim-3 (Homo sapiens, UniProt Q86V86); test: Percentage PIM3 activity remaining in the presence of 25uM inhibitor; conditions: filed as antagonist
[12] = target: Ribosomal protein S6 kinase beta-1 (Homo sapiens, UniProt P23443); test: Percentage S6K1 activity remaining in the presence of 25uM inhibitor
Ribosomal protein S6 kinase beta-1, sequence (P23443 whole entry, looked up): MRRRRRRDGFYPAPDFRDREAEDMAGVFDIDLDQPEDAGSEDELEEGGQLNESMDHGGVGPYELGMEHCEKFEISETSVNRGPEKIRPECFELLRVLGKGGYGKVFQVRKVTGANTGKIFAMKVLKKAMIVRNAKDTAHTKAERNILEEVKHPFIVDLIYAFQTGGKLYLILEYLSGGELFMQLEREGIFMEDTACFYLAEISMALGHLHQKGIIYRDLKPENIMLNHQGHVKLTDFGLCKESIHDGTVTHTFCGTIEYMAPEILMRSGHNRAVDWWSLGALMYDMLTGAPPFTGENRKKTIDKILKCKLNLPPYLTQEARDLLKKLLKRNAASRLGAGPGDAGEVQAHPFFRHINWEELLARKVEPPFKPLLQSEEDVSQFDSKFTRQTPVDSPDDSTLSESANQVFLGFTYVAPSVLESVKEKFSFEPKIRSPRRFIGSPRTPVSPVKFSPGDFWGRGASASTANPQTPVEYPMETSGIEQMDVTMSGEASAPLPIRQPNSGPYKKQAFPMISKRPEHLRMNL

[13] = target: Casein kinase II (Homo sapiens) (UniProt P67870+P68400+P19784); test: Percentage CK2 activity remaining in the presence of 25uM inhibitor; assay type: protein-complex assay

Compound	Activity [1] [%]	Activity [2] [%]	Activity [3] [%]	Activity [4] [%]	Activity [5] [%]	Activity [6] [%]	Activity [7] [%]	Activity [8] [%]	Activity [9] [%]	Activity [10] [%]	Activity [11] [%]	Activity [12] [%]	Activity [13] [%]	Activity ([6]; filed as antagonist) [%]	Activity ([12]; filed as antagonist) [%]
O=C(NCCCNc1nc(Nc2cccc(NC(=O)N3CCCC3)c2)ncc1I)c1cccs1	30	12													
CN[C@@H]1C[C@H]2O[C@@](C)([C@@H]1OC)n1c3ccccc3c3c4c(c5c6ccccc6n2c5c31)C(=O)N[C@H]4O (stereo in doubt)	2	6													
COc1cc(OC)c(/C=C2/C(=O)Nc3ccccc32)c(OC)c1			99	75	100	73	94	93	84	70	41	84	97		
NCCNS(=O)(=O)c1ccc(Cl)c2ccncc12			86	85	94		86	100	86	84	28		65	39	49
